Laboratory results: US5780025A, “Compositions and methods for the synthesis and assay of enkephalinase” (Genentech, Inc., priority 1993, dated 1998)

Molecular target: T1, purified rat kidney enkephalinase (Rattus norvegicus, UniProt P07861)
T1 construct: Rat kidney enkephalinase was purified to apparent homogeneity; from tissue; host or cells: rat kidney (male rats, membrane fraction, Triton X-100 solubilised)
T1 sequence (P07861 1-750): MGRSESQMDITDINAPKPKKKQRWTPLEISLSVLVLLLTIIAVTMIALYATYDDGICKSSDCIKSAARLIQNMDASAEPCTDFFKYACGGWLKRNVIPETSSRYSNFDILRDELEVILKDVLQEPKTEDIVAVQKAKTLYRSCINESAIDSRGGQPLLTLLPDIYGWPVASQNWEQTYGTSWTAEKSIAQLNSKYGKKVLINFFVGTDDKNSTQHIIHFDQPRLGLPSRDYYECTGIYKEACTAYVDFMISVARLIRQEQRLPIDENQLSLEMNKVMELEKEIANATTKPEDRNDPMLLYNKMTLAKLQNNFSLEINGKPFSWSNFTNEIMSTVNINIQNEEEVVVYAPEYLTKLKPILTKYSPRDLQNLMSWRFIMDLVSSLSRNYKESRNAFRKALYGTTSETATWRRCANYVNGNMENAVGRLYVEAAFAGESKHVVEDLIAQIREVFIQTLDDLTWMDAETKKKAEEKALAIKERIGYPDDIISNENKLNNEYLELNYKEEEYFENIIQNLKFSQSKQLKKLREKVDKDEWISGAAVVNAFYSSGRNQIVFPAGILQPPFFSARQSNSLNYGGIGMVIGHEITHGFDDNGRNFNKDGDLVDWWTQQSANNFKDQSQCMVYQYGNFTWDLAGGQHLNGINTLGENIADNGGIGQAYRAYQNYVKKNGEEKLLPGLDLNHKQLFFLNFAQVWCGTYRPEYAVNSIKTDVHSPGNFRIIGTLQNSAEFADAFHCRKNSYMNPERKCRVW
Assay: HPLC analysis of the hydrolysis of peptides by enkephalinase, without and with thiorphan
Assay type: biochemical
Details: 100 nM thiorphan; peptides 1 mM, 1 hr at 37° C., 5 ng enzyme

inhibition of the hydrolysis of all substrates: completely inhibited
Compound: O=C(O)CNC(=O)C(CS)Cc1ccccc1 (stereo not shown) [Thiorphan]
